We go through two molecules from patent US20250228854A1, “HETEROCYCLIC SUBSTITUTED PYRIMIDOPYRAN COMPOUNDS AND THEIR APPLICATIONS” (priority 2023, published 2025).

Structures can show the parent of a compound that is named as a salt.

For assay [1], the system named is p-ERK of KRAS^G12D mutant AsPC-1 cells. Briefly: AsPC-1 cell p-ERK inhibition test (HTRF), Experimental Example 1. The following applies: Homo sapiens, ASPC1, 3 hours compound incubation. It counts as cell-based. As for the experimental part:
Experimental Example 1. AsPC-1 Cell p-ERK Inhibition Test
The inhibitory activity of the compound on p-ERK levels of KRAS^G12D-mutant pancreatic cancer AsPC-1 cells was assessed by HTRF.
ASPC-1 cells were purchased from ATCC; RPMI-1640 medium was purchased from Gibco; Fetal Bovine Serum was purchased from Hyclone; Advanced Phospho-ERK1/2 (THR202/TYR204) KIT was purchased from Bioauxilium—
ASPC-1 cells were seeded in a 384-well cell culture plate with a white bottom, 8 μL of cell suspension per well, containing 7,500 cells per well, and the cell plates were placed in a carbon dioxide incubator and incubated at 37° C. overnight;
The test compound was diluted to 3 mM with 100% DMSO as the first concentration, and then diluted to ten concentrations of 3000, 1000, 300, 100, 30, 10, 3, 1, 0.3, 0.1 μM with a pipette. Take 2 μL of compound and add 198 μL of cell starvation medium. After mixing well, take 15 μL of compound solution and add 35 μL of cell starvation medium and mix well. Then add 4 μL of compound solution in each well to the corresponding cell plate well. Place the cell plate back in the carbon dioxide incubator for continued incubation for 3 hours. At this time, the compound concentration is 3,000, 1,000, 300, 100, 30, 10, 3, 1, 0.3, 0.1 nM. […]
After the end of incubation, use a multi-label analyzer to read HTRF excitation: 320 nm, emission: 615 nm, 665 nm; […]
(In general: TR-FRET usually uses a lanthanide donor and a delayed reading to cut background.)

For assay [2], the system named is p-ERK in AsPC-1 cells (KRAS^G12D mutation, pancreatic cancer). Briefly: AsPC-1 cell p-ERK inhibition test, Experimental Example 2. The conditions noted are these: Homo sapiens, ASPC1, read-out: AsPC-1 p-ERK IC50 (nM).
Protocol: 1640 medium, penicillin/streptomycin antibiotics were purchased from Gibco, and fetal bovine serum was purchased from Biosera. CellTiter-Glo (Cell Viability Chemiluminescence Detection Reagent) reagent was purchased from Promega. AsPC-1 cell line was purchased from ATCC, Envision Multi-Tag Analyzer (PerkinElmer).
AsPC-1 (KRAS^G12D mutation, pancreatic cancer) cells were seeded in ultra-low adsorption 96-well blackwall plate, 80 μL cell suspension per well, containing 10,000 AsPC-1 cell lines from ATCC cells. Plates were incubated overnight in a carbon dioxide incubator.
The test compound was diluted 8 concentrations with a 5-fold drain, i.e., from 2 mM to 25.6 nM, and a double replicate well experiment was set up. Add 78 μL of culture medium to the intermediate plate, and transfer 2 μL of gradient diluted compound per well to the intermediate plate according to the corresponding positions. Mix well and transfer 20 μL of each well to the cell plate. […] Another cell plate was prepared, and the signal value was read as the maximum value (Max value in the equation below) on the day of dosing to participate in the data analysis.
Each 100 μL of cell viability chemiluminescence detection reagent was added to the cell plate and incubated at room temperature for 30 minutes to stabilize the luminescence signal. Use multi-label analyzer for reading. […]

By IC50 is commonly meant the concentration that inhibits the measured activity by half. In assay [1], `C=C1CN2CCC[C@@]2(COc2nc3c(c(N4CC5CCC(CO)(C4)N5)n2)CO[C@H](c2c(F)c(N)cc(C#CC)c2C(F)(F)F)C3)C1` (some centres unmarked) [Hydrochloride of Compound 1] had an IC50 of 164 nM.

Consider `C=C1CN2CCC[C@@]2(COc2nc3c(c(N4CC5CCC(C4)N5)n2)CO[C@H](c2c(F)c(N)cc(C#CCl)c2C(F)(F)F)C3)C1` [Trifluoroacetate of Compound 7], for which the IC50 in assay [2] was determined as 24.9 nM.
